Measurements reported in patent US12534469B2 (CHILDREN'S HOSPITAL MEDICAL CENTER, priority 2020, dated 2026).
Where two headings read alike, the source gives them in different places.

Columns and labels:
[1] = target: T1, FLT3 ITD, D835V (Homo sapiens, UniProt P36888, D835V/ITD); experiment: DiscoverX KINOMEscan competition binding assay, FLT3 ITD, D835V
T1 sequence (P36888 564-993 D835V): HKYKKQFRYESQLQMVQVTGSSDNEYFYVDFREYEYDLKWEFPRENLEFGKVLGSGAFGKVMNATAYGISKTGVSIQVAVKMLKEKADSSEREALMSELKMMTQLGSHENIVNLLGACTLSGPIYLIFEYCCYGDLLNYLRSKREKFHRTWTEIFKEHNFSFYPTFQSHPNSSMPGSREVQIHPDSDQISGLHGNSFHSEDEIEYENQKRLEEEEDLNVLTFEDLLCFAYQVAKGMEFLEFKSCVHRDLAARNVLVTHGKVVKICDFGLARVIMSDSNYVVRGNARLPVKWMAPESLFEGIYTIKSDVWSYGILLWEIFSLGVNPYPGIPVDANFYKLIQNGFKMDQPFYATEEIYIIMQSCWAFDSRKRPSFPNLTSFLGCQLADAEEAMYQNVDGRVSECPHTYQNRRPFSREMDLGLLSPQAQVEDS
Source text: (§1) Kinase binding data were obtained for various exemplary compounds prepared according to Examples 1-25 using the DiscoverX KINOMEscan® active site-directed competition binding site-directed assay protocol described below. […] As a result, the data report thermodynamic interaction affinities (Kd values), rather than IC50 values that are dependent on ATP concentrations. The assay uses a DNA-tagged version of the protein kinase, and an immobilized ligand bound to a solid support. Compounds that directly or indirectly prevent kinase binding to the immobilized ligand reduce the amount of kinase captured on the solid support, which is detected using an ultra-sensitive qPCR method. Affinity constants reported from the assay have been reported to be independent of the immobilized ligand used that is coupled to the solid support (See supplemental information in Fabian, M. A. et. al., (2005) Nat. Biotechnol. 23, 329-336; Wodicka, L. M. et. al., (2010) Chem. Biol. 17, 1241-1249.)
(§2) Kinase-tagged T7 phage strains were prepared in an E. coli host derived from the BL21 strain. E. coli were grown to log-phase and infected with T7 phage and incubated with shaking at 32° C. until lysis. The lysates were centrifuged and filtered to remove cell debris. The remaining kinases were produced in HEK-293 cells and subsequently tagged with DNA for qPCR detection. […] The liganded beads were blocked with excess biotin and washed with blocking buffer (SeaBlock (Pierce), 1% BSA, 0.05% Tween 20, 1 mM DTT) to remove unbound ligand and to reduce non-specific binding. […] Test compounds were prepared as 111× stocks in 100% DMSO. Kds were determined using an 11-point 3-fold compound dilution series with three DMSO control points. […] The compounds were then diluted directly into the assays such that the final concentration of DMSO was 0.9%. All reactions were performed in polypropylene 384-well plates. Each was a final volume of 0.02 mL. […] The kinase concentration in the eluates was measured by qPCR.
(§3) Binding constants (Kds) were calculated with a standard dose-response curve using the Hill equation. […]

[2] = target: T2, FLT3 K663Q (Homo sapiens, UniProt P36888, K663Q); experiment: DiscoverX KINOMEscan competition binding assay, FLT3 K663Q
T2 construct: purchased DiscoverX (KINOMEscan); host or cells: E. coli (T7 phage) or HEK-293
T2 sequence (P36888 27-993 K663Q): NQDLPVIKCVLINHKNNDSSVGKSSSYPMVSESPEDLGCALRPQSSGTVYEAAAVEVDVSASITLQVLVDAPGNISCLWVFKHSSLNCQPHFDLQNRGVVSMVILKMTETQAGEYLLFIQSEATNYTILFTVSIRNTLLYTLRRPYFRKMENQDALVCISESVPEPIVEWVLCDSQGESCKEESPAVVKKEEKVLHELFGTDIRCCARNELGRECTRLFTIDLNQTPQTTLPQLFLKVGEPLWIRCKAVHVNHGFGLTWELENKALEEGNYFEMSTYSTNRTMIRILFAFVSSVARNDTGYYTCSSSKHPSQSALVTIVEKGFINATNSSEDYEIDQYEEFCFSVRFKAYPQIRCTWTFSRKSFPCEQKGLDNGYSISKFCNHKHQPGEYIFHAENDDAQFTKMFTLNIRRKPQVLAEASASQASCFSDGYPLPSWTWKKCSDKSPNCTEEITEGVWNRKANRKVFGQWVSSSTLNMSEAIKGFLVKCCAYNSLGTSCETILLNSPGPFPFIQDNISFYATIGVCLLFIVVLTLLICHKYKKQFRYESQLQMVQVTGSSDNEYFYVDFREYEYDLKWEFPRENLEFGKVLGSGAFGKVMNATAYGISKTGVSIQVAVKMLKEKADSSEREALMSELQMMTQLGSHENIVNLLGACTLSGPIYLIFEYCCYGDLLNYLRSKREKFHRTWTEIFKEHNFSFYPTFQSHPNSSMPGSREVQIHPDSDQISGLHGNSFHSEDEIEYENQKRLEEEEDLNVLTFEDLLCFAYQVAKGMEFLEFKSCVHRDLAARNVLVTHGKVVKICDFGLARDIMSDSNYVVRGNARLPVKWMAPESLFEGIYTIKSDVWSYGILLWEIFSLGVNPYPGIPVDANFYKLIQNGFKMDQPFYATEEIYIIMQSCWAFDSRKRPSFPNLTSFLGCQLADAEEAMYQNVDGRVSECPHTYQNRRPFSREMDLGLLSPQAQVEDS
Source text: as §1, §2, §3

Row | Structure (SMILES) | Kd ([1]; read-out: FLT3 ITD, D835V Kd) [nM] | Kd [2] [nM] | Kd [1] [nM]
1 | COc1cc2ncc(-c3cccc(N[C@@H]4CCNC4)n3)n2nc1C1CC1 [Compound 97, (R)-6-(6-cyclopropyl-7-methoxyimidazo[1,2-b]pyridazin-3-yl)-N-(pyrrolidin-3-yl)pyridin-2-amine] | 0.034 | 1.4 | –
2 | COc1cc2ncc(-c3cccc(N[C@H]4CNC[C@@H]4F)n3)n2nc1C1CC1 [Compound 96, 6-(6-cyclopropyl-7-methoxyimidazo[1,2-b]pyridazin-3-yl)-N-((3S,4S)-4-fluoropyrrolidin-3-yl)pyridin-2-amine] | – | 0.6 | 0.07
3 | COc1cc2ncc(-c3cccc(N[C@H]4CNCC[C@@H]4F)n3)n2nc1C1CC1 [Compound 102, 6-(6-cyclopropyl-7-methoxyimidazo[1,2-b]pyridazin-3-yl)-N-((3S,4S)-4-fluoropiperidin-3-yl)pyridin-2-amine] | 0.045 | 0.37 | –
